Legend:
VCaP cells = test: Cellular growth inhibition assay for VCaP cells, CellTiter-Glo; type: cell-based, human; settings: 72 hours
Procedure, shortened: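 GI50 values come from four-parameter curve fits of luminescence data normalized to a zero baseline. Compound, in medium with 0.5% DMSO, was added one day after plating and left for 72 h before CellTiter-Glo 2.0 addition.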

BRD4-BD1 = biological target: T1, BRD4-BD1 (Homo sapiens, UniProt O60885); test: Binding affinity to BRD4-BD1 (bromoKdELECT assay); settings: 11-point 3-fold dilution series
T1 construct: made in house; host or cells: T7 phage grown in an E. coli host derived from the BL21 strain

BRD4-BD2 = biological target: T2, BRD4-BD2 (Homo sapiens, UniProt O60885); test: Binding affinity to BRD4-BD2 (bromoKdELECT assay); settings: 11-point 3-fold dilution series
T2 construct: made in house; host or cells: T7 phage grown in an E. coli host derived from the BL21 strain

Row | SMILES | GI50 (VCaP cells) | Kd (BRD4-BD1) | Kd (BRD4-BD2) | GI50 (VCaP cells; Homo sapiens)
1 | CCS(=O)(=O)Nc1ccc(Oc2cccc(COC3CCN(c4ncc(C(=O)N[C@H]5C(C)(C)[C@H](Oc6ccc(C#N)c(Cl)c6)C5(C)C)cn4)CC3)c2)c(-c2cn(C)c(=O)c3[nH]ccc23)c1 [Compound I-18, N-((1r, 3r)-3-(3-chloro-4-cyanophenoxy)-2,2,4,4-tetramethylcyclobutyl)-2-(4-((3-(4-(ethylsulfonamido)-2-(6-methyl-7-oxo-6,7-dihydro-1H-pyrrolo[2,3-c]pyridin-4-yl)phenoxy)benzyl)oxy)piperidin-1-yl)pyrimidine-5-carboxamide] |  | 500 to 2500 nM | < 50 nM | < 500 nM
2 | CCS(=O)(=O)Nc1ccc(Oc2cccc(OCCOCCOCCOC3CCN(c4ncc(C(=O)N[C@H]5C(C)(C)[C@H](Oc6ccc(C#N)c(Cl)c6)C5(C)C)cn4)CC3)c2)c(-c2cn(C)c(=O)c3[nH]ccc23)c1 [Compound I-7] |  | 500 to 2500 nM | < 50 nM | < 500 nM
3 | Cn1cc(-c2cc(C(C)(C)O)ccc2Oc2cccc(CCOC3CCN(c4ncc(C(=O)N[C@H]5C(C)(C)[C@H](Oc6ccc(C#N)c(Cl)c6)C5(C)C)cn4)CC3)c2F)c2cc[nH]c2c1=O [Compound I-147] | < 500 nM | > 2500 nM | < 50 nM | 
4 | Cn1cc(-c2cc(C(C)(C)O)ccc2Oc2ccc(CCOC3CCN(c4ncc(C(=O)N[C@H]5C(C)(C)[C@H](Oc6ccc(C#N)c(Cl)c6)C5(C)C)cn4)CC3)cc2)c2cc[nH]c2c1=O [Compound I-194] |  | > 2500 nM | < 50 nM | 500 to 1500 nM
5 | Cn1cc(-c2cc(C(C)(C)O)ccc2Oc2cccc(OCCOC3CCN(c4ncc(C(=O)N[C@H]5C(C)(C)[C@H](Oc6ccc(C#N)c(Cl)c6)C5(C)C)cn4)CC3)c2)c2cc[nH]c2c1=O [Compound I-56, N-((1r, 3r)-3-(3-chloro-4-cyanophenoxy)-2,2,4,4-tetramethylcyclobutyl)-2-(4-(2-(3-(4-(2-hydroxypropan-2-yl)-2-(6-methyl-7-oxo-6,7-dihydro-1H-pyrrolo[2,3-c]pyridin-4-yl)phenoxy)phenoxy)ethoxy)piperidin-1-yl)pyrimidine-5-carboxamide] |  | 500 to 2500 nM | 50 to 500 nM | < 500 nM
6 | Cn1cc(-c2cc(C(C)(C)O)ccc2Oc2cccc(CCCN3CCN(c4ncc(C(=O)N[C@H]5C(C)(C)[C@H](Oc6ccc(C#N)c(Cl)c6)C5(C)C)cn4)CC3)c2)c2cc[nH]c2c1=O [Compound I-110] |  | 500 to 2500 nM | < 50 nM | < 500 nM
7 | Cn1cc(-c2cc(N)ccc2Oc2cccc(OCCOC3CCN(c4ncc(C(=O)N[C@H]5C(C)(C)[C@H](Oc6ccc(C#N)c(Cl)c6)C5(C)C)cn4)CC3)c2)c2cc[nH]c2c1=O [Compound I-62, 2-(4-(2-(3-(4-amino-2-(6-methyl-7-oxo-6,7-dihydro-1H-pyrrolo[2,3-c]pyridin-4-yl)phenoxy)phenoxy)ethoxy)piperidin-1-yl)-N-((1r, 3r)-3-(3-chloro-4-cyanophenoxy)-2,2,4,4-tetramethylcyclobutyl)pyrimidine-5-carboxamide] |  | > 2500 nM | > 2500 nM | < 500 nM
8 | Cc1ccc(CCCOC2CCN(c3ncc(C(=O)N[C@H]4C(C)(C)[C@H](Oc5ccc(C#N)c(Cl)c5)C4(C)C)cn3)CC2)cc1Oc1ccc(C(C)(C)O)cc1-c1cn(C)c(=O)c2[nH]ccc12 [Compound I-192] |  | > 2500 nM | 50 to 500 nM | 500 to 1500 nM
9 | Cn1cc(-c2cc(C(C)(C)O)ccc2Oc2ccc(CCC3CCN(c4ncc(C(=O)N[C@H]5C(C)(C)[C@H](Oc6ccc(C#N)c(Cl)c6)C5(C)C)cn4)CC3)cc2)c2cc[nH]c2c1=O [Compound I-203] |  | > 2500 nM | > 2500 nM | 1500 to 3000 nM
10 | Cn1cc(-c2ccccc2Oc2cccc(OCCOC3CCN(c4ncc(C(=O)N[C@H]5C(C)(C)[C@H](Oc6ccc(C#N)c(Cl)c6)C5(C)C)cn4)CC3)c2)c2ccn(C)c2c1=O [Compound I-137] |  | > 2500 nM | > 2500 nM | > 3000 nM
11 | Cn1cc(-c2cc(C(C)(C)O)ccc2Oc2cccc(OCCC3CCN(c4ncc(C(=O)N[C@H]5C(C)(C)[C@H](Oc6ccc(C#N)c(Cl)c6)C5(C)C)cn4)CC3)c2F)c2cc[nH]c2c1=O [Compound I-142] |  | > 2500 nM | 500 to 2500 nM | < 500 nM
12 | CCS(=O)(=O)Nc1ccc(Oc2ccc(OCC3CCN(c4ncc(C(=O)N[C@H]5C(C)(C)[C@H](Oc6ccc(C#N)c(Cl)c6)C5(C)C)cn4)CC3)cc2)c(-c2cn(C)c(=O)c3[nH]ccc23)c1 [Compound I-138] | < 500 nM | > 2500 nM | 500 to 2500 nM | 
13 | Cc1ccc(CCCOC2CCN(c3ncc(C(=O)N[C@H]4C(C)(C)[C@H](Oc5ccc(C#N)c(Cl)c5)C4(C)C)cn3)CC2)c(C)c1Oc1ccc(C(C)(C)O)cc1-c1cn(C)c(=O)c2[nH]ccc12 [Compound I-195] |  | > 2500 nM | > 2500 nM | > 3000 nM
14 | CCS(=O)(=O)Cc1ccc(Oc2cccc(OCCOC3CCN(c4ncc(C(=O)N[C@H]5C(C)(C)[C@H](Oc6ccc(C#N)c(Cl)c6)C5(C)C)cn4)CC3)c2)c(-c2cn(C)c(=O)c3[nH]ccc23)c1 [Compound I-54, N-((1r, 3r)-3-(3-chloro-4-cyanophenoxy)-2,2,4,4-tetramethylcyclobutyl)-2-(4-(2-(3-(4-((ethylsulfonyl)methyl)-2-(6-methyl-7-oxo-6,7-dihydro-1H-pyrrolo[2,3-c]pyridin-4-yl)phenoxy)phenoxy)ethoxy)piperidin-1-yl)pyrimidine-5-carboxamide] |  | > 2500 nM | 50 to 500 nM | < 500 nM

Further lines, results first:

Row | GI50 (VCaP cells) | Kd (BRD4-BD1) | Kd (BRD4-BD2) | GI50 (VCaP cells; Homo sapiens) | SMILES
15 | > 3000 nM | 50 to 500 nM | < 50 nM |  | Cn1cc(-c2cc(C(C)(C)O)ccc2Oc2cccc(N3CC(CC4CCN(c5ncc(C(=O)N[C@H]6C(C)(C)[C@H](Oc7ccc(C#N)c(Cl)c7)C6(C)C)cn5)CC4)C3)c2F)c2cc[nH]c2c1=O [Compound I-196]
16 |  | 50 to 500 nM | 50 to 500 nM | > 3000 nM | CC(C)c1ccc(Oc2cccc(OCCN3CCN(c4ncc(C(=O)NC5C(C)(C)C(Oc6ccc(C#N)c(Cl)c6)C5(C)C)cn4)CC3)c2)c(-c2cn(C)c(=O)c3[nH]ccc23)c1 (stereo not drawn) [Compound I-107, N-[3-(3-chloro-4-cyano-phenoxy)-2,2,4,4-tetramethyl-cyclobutyl]-2-[4-[2-[3-[4-isopropyl-2-(6-methyl-7-oxo-1H-pyrrolo[2,3-c]pyridin-4-yl)phenoxy]phenoxy]ethyl]piperazin-1-yl]pyrimidine-5-carboxamide]
17 |  | < 50 nM | < 50 nM | < 500 nM | CC(C)N(CC1CCN(c2ncc(C(=O)N[C@H]3C(C)(C)[C@H](Oc4ccc(C#N)c(Cl)c4)C3(C)C)cn2)CC1)[C@H]1C[C@H](Oc2cccc(Oc3ccc(C(C)(C)O)cc3-c3cn(C)c(=O)c4[nH]ccc34)c2F)C1 [Compound I-214]
18 |  | 50 to 500 nM | < 50 nM | < 500 nM | CCS(=O)(=O)Nc1ccc(Oc2cccc(N3CCN(C4CN(c5ncc(C(=O)N[C@H]6C(C)(C)[C@H](Oc7ccc(C#N)c(Cl)c7)C6(C)C)cn5)C4)CC3)c2)c(-c2cn(C)c(=O)c3[nH]ccc23)c1 [Compound I-126]
19 |  | 50 to 500 nM | < 50 nM | < 500 nM | CCS(=O)(=O)c1ccc(Oc2cccc(OCCOC3CCN(c4ccc(C(=O)N[C@H]5C(C)(C)[C@H](Oc6ccc(C#N)c(Cl)c6)C5(C)C)cn4)CC3)c2F)c(-c2cn(C)c(=O)c3[nH]ccc23)c1 [Compound I-185]
20 |  | < 50 nM | < 50 nM | < 500 nM | CCS(=O)(=O)c1ccc(OC(CCCCN2CCN(c3ncc(C(=O)NC4C(C)(C)C(Oc5ccc(C#N)c(Cl)c5)C4(C)C)cn3)CC2)C2CC2)c(-c2cn(C)c(=O)c3[nH]ccc23)c1 (stereo not drawn) [Compound I-223, N-[3-(3-chloro-4-cyano-phenoxy)-2,2,4,4-tetramethyl-cyclobutyl]-2-[4-[5-cyclopropyl-5-[4-ethylsulfonyl-2-(6-methyl-7-oxo-1H-pyrrolo[2,3-c]pyridin-4-yl)phenoxy]pentyl]piperazin-1-yl]pyrimidine-5-carboxamide]
21 |  | < 50 nM | < 50 nM | < 500 nM | CCS(=O)(=O)Nc1ccc(Oc2cccc(NCCOC3CCN(c4ncc(C(=O)N[C@H]5C(C)(C)[C@H](Oc6ccc(C#N)c(Cl)c6)C5(C)C)cn4)CC3)c2)c(-c2cn(C)c(=O)c3[nH]ccc23)c1 [Compound I-84]
22 |  | 50 to 500 nM | 50 to 500 nM | < 500 nM | CCS(=O)(=O)Nc1ccc(Oc2cccc(N3CC(N4CCN(c5ncc(C(=O)N[C@H]6C(C)(C)[C@H](Oc7ccc(C#N)c(Cl)c7)C6(C)C)cn5)CC4)C3)c2)c(-c2cn(C)c(=O)c3[nH]ccc23)c1 [Compound I-75]
23 |  | < 50 nM | < 50 nM | < 500 nM | CCS(=O)(=O)Nc1ccc(Oc2cccc(OCCOCCOCCOCCOCCN(C)c3ncc(C(=O)N[C@H]4C(C)(C)[C@H](Oc5ccc(C#N)c(Cl)c5)C4(C)C)cn3)c2)c(-c2cn(C)c(=O)c3[nH]ccc23)c1 [Compound I-3]
24 |  | 50 to 500 nM | < 50 nM | < 500 nM | CCS(=O)(=O)Nc1ccc(Oc2cccc(OCCN(C)c3ncc(C(=O)N[C@H]4C(C)(C)[C@H](Oc5ccc(C#N)c(Cl)c5)C4(C)C)cn3)c2)c(-c2cn(C)c(=O)c3[nH]ccc23)c1 [Compound I-1, N-((1r, 3r)-3-(3-chloro-4-cyanophenoxy)-2,2,4,4-tetramethylcyclobutyl)-2-((2-(3-(4-(ethylsulfonamido)-2-(6-methyl-7-oxo-6,7-dihydro-1H-pyrrolo[2,3-c]pyridin-4-yl)phenoxy)phenoxy)ethyl)(methyl)amino)pyrimidine-5-carboxamide]
25 |  | 50 to 500 nM | < 50 nM | < 500 nM | CN(c1ccc(Oc2ccc(C(C)(C)O)cc2-c2cn(C)c(=O)c3[nH]ccc23)cc1)C1CCN(c2ncc(C(=O)N[C@H]3C(C)(C)[C@H](Oc4ccc(C#N)c(Cl)c4)C3(C)C)cn2)CC1 [Compound I-197]
26 |  | < 50 nM | < 50 nM | < 500 nM | Cn1cc(-c2cc(C(C)(C)O)ccc2Oc2ccc(N3CC(CN4CC5CC4CN5c4ncc(C(=O)N[C@H]5C(C)(C)[C@H](Oc6ccc(C#N)c(Cl)c6)C5(C)C)cn4)C3)cc2)c2cc[nH]c2c1=O (stereo partly drawn) [Compound I-228]
